{"source": "patent US20150352075A1", "about": "“Treatment of Alzheimer's and Cognitive Impairment With Andrographolides” (INNOBIOSCIENCE, LLC, priority 2013, published 2015)", "key": {"[1]": {"assay": "Side effects in treated animals", "conditions": "in vivo"}, "[2]": {"test_system": "Wnt target genes in cultured hippocampal neurons", "assay": "PCR array of Wnt target genes in hippocampal neurons", "format": "cell-based, rat", "procedure": "Primary culture of rat hippocampal neurons. […] PCR-ARRAY. RNA from hippocampal neurons was extracted using Trizol. Quantification and purity of RNA preparations were checked by absorbance using Nanodrop ND-2000. Only preparations with a 260/280 nm ratio ≧1.8, a 260/230 nm ratio ≧1.7 and no sign of RNA degradations, verified by agarose gel electrophoresis with Gel Red™ were used. Genomic DNA was degraded. Using RT2First-Strand cDNA Synthesis kit (SuperArray), 1 ng total RNA was reverse transcribed and then real-time PCR was performed by adding cDNA directly to PCR Master Mix, containing SYBR Green and ROX. The mixtures were then aliquoted into a 96-well PCR array plates, which profiles the expression of 84 Wnt target genes from rat. The PCR was run on ABI StepOnePlus, with 1 cycle of 10 min at 95° C. followed by 40 cycles of 15s at 95° C. and 1 min at 60° C. […] Treatment of neuronal cultures. Primary hippocampal cultures of neurons 14 DIV were washed twice in neurobasal medium and maintained for 1 hour. Next ANDRO (10 μM) and 6-BIO (10 μM) were added to different time periods."}, "[3]": {"test_system": "APPswe/PS-1 double transgenic mice", "assay": "Thioflavine-S staining of amyloid plaques in brain of treated mice", "format": "in vivo"}, "[4]": {"test_system": "CA3-CA1 connections in hippocampal slices", "assay": "Electrophysiology (fEPSP, PPF, LTP, LTD) in Wt hippocampal slices", "format": "cell-based, mice", "procedure": "Slices were transferred to an experimental chamber (2 ml), superfused (3 ml/min, at 20-22° C.) with gassed ACSF and visualized by trans-illumination with a binocular microscope (MSZ-10, Nikon, Melville, N.Y.). […] The stimulation was in the Stratum Radiatum within 100-200 μm from the recording site. The paired pulse facilitation index was calculated by ((R2−R1)/R1), where R1 and R2 were the peak amplitudes of the first and second fEPSP respectively. To generate LTP we used Theta Burst Stimulation (TBS) consisting of 5 trains of stimulus with an inter-train interval of 20 s. Each train consisted of 10 bursts at 5 Hz and each burst having 4 pulses at 100 Hz. To generate LTD we used Low Frequency Stimulation (LFS) consisting in 900 paired pulses at 1 Hz. Recordings were filtered at 2.0-3.0 kHz, sampled at 4.0 kHz using an A/D converter, and stored with pClamp 10 (Molecular Devices). Evoked postsynaptic responses were analyzed off-line, using an analysis software (pClampfit, Molecular Devices), which allowed visual detection of events, computing only those events that exceeded and arbitrary threshold."}, "[5]": {"test_system": "APPswe/PS-1 double transgenic mice", "assay": "Slot blot of Aβ oligomers (A11 antibody) in hippocampus of treated mice", "format": "in vivo"}, "[6]": {"molecular_target": "T1, Immunoprecipitated GSK-3β from hippocampus of wild-type mice (Mus musculus, UniProt Q9WV60)", "T1 construct": "the hippocampus of two month-old wild-type mice were lysed in immunoprecipitation buffer; from tissue; host or cells: hippocampus of two-month-old wild-type mice (immunoprecipitated with anti-GSK-3β antibody, Santa Cruz)", "T1 sequence (Q9WV60 whole entry)": "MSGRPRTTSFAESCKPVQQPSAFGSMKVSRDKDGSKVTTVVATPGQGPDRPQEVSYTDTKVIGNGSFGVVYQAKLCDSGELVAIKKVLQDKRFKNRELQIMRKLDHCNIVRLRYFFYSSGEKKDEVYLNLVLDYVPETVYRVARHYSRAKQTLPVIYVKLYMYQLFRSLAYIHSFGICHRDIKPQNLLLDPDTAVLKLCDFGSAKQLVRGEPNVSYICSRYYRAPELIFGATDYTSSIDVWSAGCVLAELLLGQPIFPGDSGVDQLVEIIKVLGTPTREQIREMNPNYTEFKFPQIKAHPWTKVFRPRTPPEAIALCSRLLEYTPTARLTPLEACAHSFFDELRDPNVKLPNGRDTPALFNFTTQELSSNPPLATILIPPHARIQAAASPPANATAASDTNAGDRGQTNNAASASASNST", "assay": "Luminometric GSK-3β activity assay", "format": "biochemical", "procedure": "The immunoprecipitation was performed as previously described (Garrido et al, 2002). Briefly, the hippocampus of two month-old wild-type mice were lysed in immunoprecipitation buffer (25 mM HEPES pH 7.4, 125 mMNaCl, 25 mMNaF, 1 mM EDTA, 1 mM EGTA, 1% NP-40) including phosphatase inhibitors (1 mM NaVO3 and 200 nM okadaic acid) and the protease inhibitor cocktail described above. 200 μg of total proteins from lysate were precleared by using protein G-Sepharose beads (Santa Cruz Biotechnology) for 1 h at 4° C. and then were incubated with anti-GSK-3β antibody (Santa Cruz Biotechnology) and new protein G beads for 4 h at 4° C. The immunocomplexes were finally pelleted and washed three times with cold immunoprecipitation buffer.\nIC50 of ANDRO was determined by a luminometric GSK-3β activity assay. […] Briefly, ANDRO was tested at different concentrations and diluted in kinase buffer containing final concentrations of: 40 mM Tris pH 7.5; 20 mM MgCl2; 0.1 mg/ml BSA. […] The enzymatic reaction was stopped after 10 min of incubation to room temperature by adding 50 μl Kinase Glo (Promega, Madison, USA). The luminometric signal was allowed to stabilize for 10 min and the measured with a Luminometer TURNER DESIGNS model TD-2020."}, "[7]": {"conditions": "young APPswe/PS-1 mice, vs controls"}}, "note": "Where two headings read alike, the source gives them in different places.", "data": [{"smiles": "C=C1CC[C@@H]2C(C)(CO)C(O)CC[C@@]2(C)C1C/C=C1/C(=O)OCC1O", "note": "(stereo in doubt) [ANDRO, 3-(2-(Decahydro-6-hydroxy-5-(hydroxymethyl)-5,8a-dimethyl-2-methylenenaphthyl)ethylidene)dihydro-4-hydroxyfuran-2(3H)-one]", "values": [{"measurement": "side effects in animals", "setting": "[1]", "result": "seems not to cause side effects in animals"}, {"measurement": "Cdh-1 gene expression", "setting": "[2]", "result": "differential expression induced by ANDRO"}, {"measurement": "number of Wnt target genes specifically modulated", "setting": "[2]; 9 h, of the 86 genes analyzed", "result": 3, "unit": "genes"}, {"measurement": "number of modulated Wnt target genes shared by both treatments", "setting": "[2]; 9 h, of the 86 genes analyzed", "result": 4}, {"measurement": "Ets2 gene expression", "setting": "[2]; after Bonferroni correction", "result": "down-regulation of Ets2 gene"}, {"measurement": "plaque size distribution (cumulative frequency)", "setting": "[3]; 7 month-old APPswe/PS-1 mice", "result": "shift in their distribution toward smaller plaque size"}, {"measurement": "amyloid plaques stained with Th-S", "setting": "[3]; 7 month-old APPswe/PS-1 mice, cortex and hippocampus, vs untreated", "result": "reduction of amyloid plaques stained with Th-S"}, {"measurement": "amyloid deposit levels (amyloid burden area)", "setting": "[3]; FIG. 3F mice (printed young; legend: old, 12 month-old), hippocampus or cortex", "result": "no change in amyloid deposit levels"}, {"measurement": "most immature plaques (type 1)", "setting": "[3]; [7]", "result": "increase significantly"}, {"measurement": "type 2a and 2c amyloid plaques in total brain", "setting": "[3]; [7]", "result": "no significant differences"}, {"measurement": "type 2b amyloid plaques in brain", "setting": "[3]; [7]", "result": "significantly decreased"}, {"measurement": "fEPSP amplitude (basal synaptic transmission)", "setting": "[4]; ANDRO (5 μM), slices exposed for 30 min", "result": "increased the fEPSP amplitude"}, {"measurement": "paired pulse facilitation (PPF) ratio", "setting": "[4]; Wt hippocampal slices", "result": "does not increase PPF ratio"}, {"measurement": "LTP induction or maintenance", "setting": "[4]; Wt hippocampal slices, TBS, in the presence of ANDRO", "result": "do not observed alteration in the LTP induction or maintenance"}, {"measurement": "induction of LTD", "setting": "[4]; hippocampal slices, LFS", "result": "the LTD was inhibited"}, {"measurement": "level of Aβ oligomers (A11 slot-blot)", "setting": "[5]; 7 month-old APPswe/PS-1 mice", "result": "did not show significant changes"}, {"measurement": "levels of Aβ-oligomers (A11 slot blot)", "setting": "[5]; FIG. 3G mice (legend: old APPswe/PS-1)", "result": "did not show significant changes"}, {"measurement": "IC50", "setting": "[6]; 25 μM pGS-2 peptide substrate, 10 μM ATP, preincubation 10 min, read-out: inhibition constant (IC50) of GSK-3β activity", "result": 5.58, "unit": "µM"}, {"measurement": "GSK-3β inhibition in the presence of DTT", "setting": "[6]; 0.5 mM DTT", "result": "neither prevents the inhibition generated by ANDRO"}, {"measurement": "IC50", "setting": "[6]; different concentrations of ATP, read-out: IC50 using different concentrations of ATP", "result": "~5.58", "unit": "µM"}, {"measurement": "IC50 at increased substrate concentration", "setting": "[6]; different concentrations of the substrate", "result": "increase in the IC50 of ANDRO"}]}]}
